System: transgenic mice that express both human CETP and human apolipoprotein A-1
Experiment: Assay of plasma lipids in vivo (HDL cholesterol elevation)
Conditions: single oral dose 30 mg/kg; 8 hr after dosing; serum HDL cholesterol relative to control; human CETP/human apoA-1 transgenic mice
Procedure: Assay of Plasma Lipids In Vivo
Activity of compounds of this invention in vivo can be determined by comparing the level of elevation of HDL cholesterol relative to control by a given amount of a compound in a CETP-containing animal species. A strain of transgenic mice that express both human CETP and human apolipoprotein A-1 (Taconic, Germantown, N.Y.) is used to test compounds of this invention. Test compounds are administered once orally in selected aqueous or oil based vehicles. At various times after dosing, ranging from 4 h to 24 h, blood is obtained. Blood is allowed to clot and serum is obtained by centrifugation. HDL cholesterol levels in the serum is determined by HDL-C plus reagents (Roche/Hitachi, Indianapolis, Ind.) with a clinical chemistry analyzer (Roche/Hitachi, Indianapolis, Ind.). Additional serum lipids can be analyzed by enzymatic methods. Lipids in the VLDL, LDL and HDL fractions are analyzed by enzymatic methods after precipitation or size exclusion chromatography.

Row | SMILES | % HDL cholesterol increase [%]
1 | CCC1CC(N(Cc2cc(C(F)(F)F)cc(C(F)(F)F)c2)c2nnn(C)n2)c2nc(OC)ccc2N1C(=O)OC(C)C (racemic) [Example 8, (+/−)-cis-4-[(3,5-Bis-trifluoromethyl-benzyl)-2-methyl-2H-tetrazol-5-yl)-amino]-2-ethyl-6-methoxy-3,4-dihydro-2H-[1,5]naphthyridine-1-carboxylic acid isopropyl ester] | 313
2 | CC(C)OC(=O)N1c2ccc(C(F)(F)F)nc2C(N(Cc2cc(C(F)(F)F)cc(C(F)(F)F)c2)c2nnn(C)n2)CC1C1CC1 (racemic) [Example 52, (+/−)-cis-4-[(3,5-Bis-trifluoromethyl-benzyl)-(2methyl-2H-tetrazole-5-yl)-amino]-2-cyclopropyl-6-trifluoromethyl-3,4-dihydro-2H-[1,5]naphthyridine-1-carboxylic acid isopropyl ester] | 66
3 | CC[C@H]1C[C@@H](N(Cc2cc(C(F)(F)F)cc(C(F)(F)F)c2)c2nnn(CCO)n2)c2nc(C(F)(F)F)ccc2N1C(=O)OC(C)C (stereo in doubt) [Example 18, (2S,4R)-4-[(3,5-Bis-trifluoromethyl-benzyl)-[2-(2-hydroxy-ethyl)-2H-tetrazol-5-yl)-amino]-2-ethyl-6-trifluoromethyl-3,4-dihydro-2H-[1,5]naphthyridine-1-carboxylic acid isopropyl ester] | 187
4 | CC[C@@H]1C[C@H](N(Cc2cc(C(F)(F)F)cc(C(F)(F)F)c2)c2nnn(C)n2)c2nc(C(F)(F)F)ccc2N1C(=O)OC(C)C [Example 11] | 134
5 | CC[C@@H]1C[C@H](N(Cc2cc(C(F)(F)F)cc(C(F)(F)F)c2)c2nnn(CCN)n2)c2nc(C(F)(F)F)ccc2N1C(=O)OC(C)C [Example 15, (2R,4S)-cis-4-[[2-(2-Amino-ethyl)-2H-tetrazol-5-yl]-(3,5-bis-trifluoromethyl-benzyl)-amino]-2-ethyl-6-trifluoromethyl-3,4-dihydro-2H-[1,5]naphthyridine-1-carboxylic acid isopropyl ester] | 91
